Columns and labels:
NS0 cells [1] = assay: shake flask cell growth in medium held in WAVE Bioreactor bag; parameters: species or system murine; details: based on medium hold study and shake flask growth and viability data
Experimental: (§1) The rate of cholesterol depletion from the culture medium in single-use disposable bioreactor bags was determined. A medium hold study was performed in which 1.4 L of fresh pre-warmed culture medium containing 2.5 mg/L cholesterol (1 ml GCLC/liter medium) was added into a 2 L WAVE BIOREACTOR™ bag. The bag was then incubated under standard culture conditions, and 200 ml medium aliquots were aseptically removed from the bag at 15 min, 4 h, 7.5 h and 22 h incubation times. The medium aliquots at each time point were analyzed for cholesterol concentration (FIG. 1) and used to inoculate shake flask cultures seeded at 4×10^5 cells/ml. Shake-flask cultures were passaged for three days under standard conditions. A shake-flask control culture (no prior exposure to WAVE Bioreactor™ bag) containing 2.5 mg/L cholesterol (1 ml GCLC per liter medium) was seeded in parallel. Viable cell density and viability were measured every 24 hours (FIG. 2).
A cholesterol-dependent NS0 cell line expressing recombinant antibody was used in the study. The culture medium used was a chemically defined medium formulation. […]
(§2) Viable cell density was determined using a Cedex Automated Cell Culture Analyzer (Roche Innovatis AG). pH and pCO2 were measured off-line using a BioProfile pHOx analyzer (Nova Biomedical). Cholesterol concentration was measured using GC analysis by Invitrogen Medium Analytical Services.

[2] = medium hold study: cholesterol adsorption in disposable WAVE Bioreactor bag; assay type: physicochemical; details: medium with 2.5 mg/L cholesterol (1 ml GCLC/liter), after 22 hours of incubation in 2 L WAVE Bioreactor bag
Experimental: as §1, §2

NS0 cells [3] = assay: cholesterol dosing in high cell density pseudo-perfusion shake flask culture; assay type: cell-based, murine; details: seed density 8×10^6 cells/ml
Experimental: FIG. 5A and FIG. 5B are graphs of a cholesterol dosing study in high cell density cell culture generated using pseudo-perfusion mode. […] Pseudo-perfusion cultures were established in shake flasks using growth medium supplement with GCLC at the following concentrations: 2.5 mg/L (▪), 7.5 mg/L (▴), 10.0 mg/L (0) to 12.5 mg/L (∘). Full volume medium exchanges were carried out on a daily basis. […] There was full volume exchange of medium in the shake flasks on a daily basis. The initial seed density was 8×10^6 cells/ml, and one volume of fresh growth medium was exchanged daily starting on day 1 post inoculation.

NS0 cells [4] = details: ethanol dose study
Experimental: Cells were suspended in fresh medium containing increased amount of GCLC at concentrations of 5 mg/L and 7.5 mg/L and then incubated for 3 days in 2 L bags under standard cell culture conditions.

| SMILES | cholesterol concentration in the medium to be maintained to support cell growth (NS0 cells [1]) | cholesterol concentration in the medium [2] | support of cell growth (NS0 cells [3]; 2.5 mg total cholesterol/L, daily full volume medium exchange) | cholesterol concentration required to support growth (NS0 cells [3]; high cell density pseudo-perfusion culture) [mg/L] | ethanol concentration at which cell growth was not inhibited (NS0 cells [4]) |
| --- | --- | --- | --- | --- | --- |
| CC(C)CCC[C@@H](C)[C@H]1CC[C@H]2[C@@H]3CC=C4C[C@@H](O)CC[C@]4(C)[C@H]3CC[C@]12C [cholesterol] | above 1.0 mg/L | below detectable limits | insufficient to support growth | > 7.5 |  |
| CCO [ethanol] |  |  |  |  | below 2% |

— US20140363845A1, “CHOLESTEROL-BASED MEDIA SUPPLEMENTS FOR CELL CULTURE” (Biogen Idec MA Inc., priority 2011, published 2014)
